The subject of the test is HCV 1b_Huh-Luc/Neo-ET cell line (bicistronic genotype 1b replicon in Huh 7 cells). As to the kind of experiment: HCV replicon assay (luciferase readout). Format: cell-based, HCV genotype 1b. To be noted: Hepatitis C virus, Huh-7, 72 h, read-out: Inhibition of HCB genotype 1b. On the procedure:
Biological activity of the compounds of the invention was determined using an HCV replicon assay. The HCV 1b_Huh-Luc/Neo-ET cell line persistently expressing a bicistronic genotype 1b replicon in Huh 7 cells was obtained from ReBLikon GMBH. This cell line was used to test compound inhibition using luciferase enzyme activity readout as a measurement of compound inhibition of replicon levels.
On Day 1 (the day after plating cells), each compound is added in triplicate to the cells. Plates are incubated for 72 h prior to determining luciferase levels. Enzyme activity was measured using a Bright-Glo Kit (cat. number E2620) manufactured by Promega Corporation. The following equation was used to generate a percent control value for each compound. % Control=(Compound Luciferase Level/Control Luciferase Level)*100
The EC50 value was determined using GraphPad Prism and the following equation: Y=Bottom asymptote+(Top asymptote−Bottom asymptote)/(1+10^((LogEC50−X)*HillSlope))
EC50 values of compounds are determined several times in the replicon assay to generate average EC50 values.
On the technique in general: Replicon systems follow genome replication, usually without infectious particles.
As to `COCCOc1cc(-c2cnc([C@@H]3CCCN3C(=O)[C@@H](NC(=O)OC)C3CCCCC3)[nH]2)ccc1-c1ccc(-c2cnc([C@@H]3CCCN3C(=O)[C@@H](NC(=O)OC)C3CCCCC3)[nH]2)cc1OCCOC` [Compound 9], the EC50 is under 1 nM.
For `COCCOc1c(-c2ccc(-c3cnc([C@@H]4CCCN4C(=O)[C@H](COC)NC(=O)OC)[nH]3)cc2)ccc(-c2cnc([C@@H]3CCCN3C(=O)[C@H](COC)NC(=O)OC)[nH]2)c1OCCOC` [Compound 11] the value was 10 to 999 nM; for `COCCOc1c(-c2ccc(-c3cnc([C@@H]4CCCN4C(=O)[C@@H](NC(=O)OC)C4CCCC4)[nH]3)cc2)ccc(-c2cnc([C@@H]3CCCN3C(=O)[C@@H](NC(=O)OC)C3CCCC3)[nH]2)c1OCCOC` [Compound 4], under 1 nM.
For `COCCOc1cc(-c2cnc([C@@H]3CCCN3C(=O)[C@@H](NC(=O)OC)C3CCCC3)[nH]2)ccc1-c1ccc(-c2cnc([C@@H]3CCCN3C(=O)[C@@H](NC(=O)OC)C3CCCC3)[nH]2)cc1OCCOC` [Compound 8], the EC50 is under 1 nM.
For `COCCOc1cc(-c2cnc([C@@H]3CCCN3C(=O)[C@H](C)NC(=O)OC)[nH]2)ccc1-c1ccc(-c2cnc([C@@H]3CCCN3C(=O)[C@H](C)NC(=O)OC)[nH]2)cc1OCCOC` [Compound 6] the value was 10 to 999 nM; for `CC[C@H](C)[C@H](NC(=O)OC)C(=O)N1CCC[C@H]1c1ncc(-c2ccc(-c3ccc(-c4cnc([C@@H]5CCCN5C(=O)[C@@H](NC(=O)OC)C(C)C)[nH]4)cc3)c(OCCOC)c2OCCOC)[nH]1` [Compound 19], under 1 nM; for `COCCOc1c(-c2ccc(-c3cnc([C@@H]4CCCN4C(=O)[C@H](C)NC(=O)OC)[nH]3)cc2)ccc(-c2cnc([C@@H]3CCCN3C(=O)[C@H](C)NC(=O)OC)[nH]2)c1OCCOC` [Compound 10], under 1 nM.
As to `COCCOc1cc(-c2cnc([C@@H]3CCCN3C(=O)[C@@H](NC(=O)OC)C(C)C)[nH]2)ccc1-c1ccc(-c2cnc([C@@H]3CCCN3C(=O)[C@@H](NC(=O)OC)C(C)C)[nH]2)cc1OCCOC` [Compound 1], the EC50 is under 1 nM.
For `COCCOc1c(-c2ccc(-c3cnc([C@@H]4CCCN4C(=O)[C@@H](NC(=O)OC)C(C)C)[nH]3)cc2)ccc(-c2cnc([C@@H]3CCCN3C(=O)[C@H](C)NC(=O)OC)[nH]2)c1OCCOC` [Compound 18] the value was 1 to 9.9 nM; for `COCCOc1c(-c2ccc(-c3cnc([C@@H]4CCCN4C(=O)[C@@H](c4ccccc4)N(C)C)[nH]3)cc2)ccc(-c2cnc([C@@H]3CCCN3C(=O)[C@@H](c3ccccc3)N(C)C)[nH]2)c1OCCOC` [Compound 15], under 1 nM.
For `COCCOc1c(-c2ccc(-c3cnc([C@@H]4CCCN4C(=O)[C@@H](NC(=O)OC)[C@@H](C)OC)[nH]3)cc2)ccc(-c2cnc([C@@H]3CCCN3C(=O)[C@@H](NC(=O)OC)[C@@H](C)OC)[nH]2)c1OCCOC` [Compound 12] the value was 1 to 9.9 nM.
For `CC[C@H](C)[C@H](NC(=O)OC)C(=O)N1CCC[C@H]1c1ncc(-c2ccc(-c3ccc(-c4cnc([C@@H]5CCCN5C(=O)[C@@H](NC(=O)OC)[C@@H](C)CC)[nH]4)c(OCCOC)c3OCCOC)cc2)[nH]1` [Compound 3] the value was under 1 nM; for `COCCOc1c(-c2ccc(-c3cnc([C@@H]4CCCN4C(=O)[C@@H](NC(=O)OC)C(C)C)[nH]3)cc2)ccc(-c2cnc([C@@H]3CCCN3C(=O)[C@@H](NC(=O)OC)C(C)C)[nH]2)c1OCCOC` [Compound 2], under 1 nM; for `COCCOc1c(-c2ccc(-c3cnc([C@@H]4CCCN4C(=O)[C@H](NS(C)(=O)=O)c4ccccc4)[nH]3)cc2)ccc(-c2cnc([C@@H]3CCCN3C(=O)[C@H](NS(C)(=O)=O)c3ccccc3)[nH]2)c1OCCOC` [Compound 17], under 1 nM.
`COCCOc1c(-c2ccc(-c3cnc([C@@H]4CCCN4C(=O)[C@@H](NC(=O)OC)C(C)(C)C)[nH]3)cc2)ccc(-c2cnc([C@@H]3CCCN3C(=O)[C@@H](NC(=O)OC)C(C)(C)C)[nH]2)c1OCCOC` [Compound 13]: the EC50 is 1 to 9.9 nM.
For `CC[C@H](C)[C@H](NC(=O)OC)C(=O)N1CCC[C@H]1c1ncc(-c2ccc(-c3ccc(-c4cnc([C@@H]5CCCN5C(=O)[C@@H](NC(=O)OC)[C@@H](C)CC)[nH]4)cc3OCCOC)c(OCCOC)c2)[nH]1` [Compound 7] the value was under 1 nM; for `COCCOc1c(-c2ccc(-c3cnc([C@@H]4CCCN4C(=O)[C@@H](NC(=O)OC)C4CCOCC4)[nH]3)cc2)ccc(-c2cnc([C@@H]3CCCN3C(=O)[C@@H](NC(=O)OC)C3CCOCC3)[nH]2)c1OCCOC` [Compound 14], 1 to 9.9 nM; for `COCCOc1c(-c2ccc(-c3cnc([C@@H]4CCCN4C(=O)[C@@H](c4ccccc4)N4CCCC4)[nH]3)cc2)ccc(-c2cnc([C@@H]3CCCN3C(=O)[C@@H](c3ccccc3)N3CCCC3)[nH]2)c1OCCOC` [Compound 16], 1 to 9.9 nM.

The record behind these values is patent US8709999B2, “Substituted bicyclic HCV inhibitors” (Presidio Pharmaceuticals, Inc., priority 2009, dated 2014).
